# Values quoted from earlier work, collected in patent publication US20230330238A1, “CHIMERIC CONJUGATES FOR DEGRADATION OF VIRAL AND HOST PROTEINS AND METHODS OF USE” (Dana-Farber Cancer Institute, Inc., priority 2020, published 2023).
# Details: FIG. 8A, identical to FIG. 1C in Bernal F., et al. 2007; cited from earlier work
substance,measurement,value
LSQETF(R8)DLWKLL(S5)EN [SAH-p53-4],α-helical stabilization (helicity by circular dichroism),more stable than SAH-p53-1-3
